Experimental findings from ChEMBL document CHEMBL6134780, “Halogenated retinoid derivatives as dual RARα and RXRα modulators for treating acute promyelocytic leukemia cells” (Eur J Med Chem, 2024) are described below.

The structures appear in SMILES notation. The source made the active and inactive calls. The calls are words filed in the database; no cut-off is given here.

Assay [1] has as its system ATRA-resistant NB4-LR2. Put plainly: Induction of apoptosis in human ATRA-resistant NB4-LR2 cells transfected with pLVX-shRXRalpha assessed as increase in cleaved PARP expression at 8 uM incubated for 12 hrs by Western blot analysis. Format: functional, cell-based. For orientation: Immunoblotting shows a protein as a band on a membrane.
For assay [2], the system named is ATRA-resistant NB4-LR2. The assay is described as follows: Cell cycle arrest in human ATRA-resistant NB4-LR2 cells transfected with pLVX-shRXRalpha assessed as increase in PLK1 expression at 8 uM incubated for 12 hrs by Western blot analysis. Format: functional, cell-based.
Assay [3] has as its system NB-4. The assay is described as follows: Induction of apoptosis in human NB4 cells assessed as necrotic cells at 10 uM incubated for 24 hrs by Annexin V-FITC/PI staining based flow cytometric analysis (reference value: 0.07 %). Type of assay: functional. (In flow cytometry, cells or beads pass a laser one at a time.)
Assay [4] in a line: Induction of apoptosis in human ATRA-resistant NB4-LR2 cells assessed as necrotic cells at 10 uM incubated for 24 hrs by Annexin V-FITC/PI staining based flow cytometric analysis (reference value: 0.08 %). Format: functional.
Assay [5] in a line: Induction of apoptosis in human ATRA-resistant NB4-LR2 cells assessed as viable cells at 10 uM incubated for 24 hrs by Annexin V-FITC/PI staining based flow cytometric analysis (reference value: 87.30 %). Type of assay: functional. The settings on record: read-out: Activity.
For assay [6], the system named is NB-4. The assay is described as follows: Induction of apoptosis in human NB4 cells assessed as viable cells at 10 uM incubated for 24 hrs by Annexin V-FITC/PI staining based flow cytometric analysis (reference value: 92.36 %). Type of assay: functional. To be noted: read-out: Activity.
A short description of assay [7]: Induction of apoptosis in human ATRA-resistant NB4-LR2 cells assessed as late apoptotic cells at 10 uM incubated for 24 hrs by Annexin V-FITC/PI staining based flow cytometric analysis (reference value: 7.23 %). Format: functional.
Assay [8] is described as follows: Induction of apoptosis in human ATRA-resistant NB4-LR2 cells assessed as early apoptotic cells at 10 uM incubated for 24 hrs by Annexin V-FITC/PI staining based flow cytometric analysis (reference value: 5.38 %). Type of assay: functional.
For assay [9], the system named is NB-4. Put plainly: Induction of apoptosis in human NB4 cells assessed as late apoptotic cells at 10 uM incubated for 24 hrs by Annexin V-FITC/PI staining based flow cytometric analysis (reference value: 3.20 %). Format: functional.
Assay [10] deals with ATRA-resistant NB4-LR2. Put plainly: Cell cycle arrest in human ATRA-resistant NB4-LR2 cells transfected with pLVX-shRXRalpha assessed as increase in cyclin B1 expression at 8 uM incubated for 12 hrs by Western blot analysis. Format: functional, cell-based.
In assay [11] the test system is NB-4. The assay is described as follows: Induction of apoptosis in human NB4 cells assessed as early apoptotic cells at 10 uM incubated for 24 hrs by Annexin V-FITC/PI staining based flow cytometric analysis (reference value: 4.37 %). Format: functional.
Assay [12] can be described thus: Induction of apoptosis in human ATRA-resistant NB4-LR2 cells assessed as late apoptotic cells at 5 uM incubated for 24 hrs by Annexin V-FITC/PI staining based flow cytometric analysis (reference value: 7.23 %). Format: functional.
The test system of assay [13] is NB-4. Put plainly: Induction of apoptosis in human NB4 cells assessed as viable cells at 5 uM incubated for 24 hrs by Annexin V-FITC/PI staining based flow cytometric analysis (reference value: 92.36 %). Type of assay: functional. The settings on record: read-out: Activity.
Assay [14] is described as follows: Induction of apoptosis in human ATRA-resistant NB4-LR2 cells assessed as necrotic cells at 5 uM incubated for 24 hrs by Annexin V-FITC/PI staining based flow cytometric analysis (reference value: 0.08 %). Format: functional.
Assay [15] deals with NB-4. Put plainly: Induction of apoptosis in human NB4 cells assessed as late apoptotic cells at 5 uM incubated for 24 hrs by Annexin V-FITC/PI staining based flow cytometric analysis (reference value: 3.20 %). Format: functional.
In assay [16] the test system is NB-4. The assay is described as follows: Induction of apoptosis in human NB4 cells assessed as necrotic cells at 5 uM incubated for 24 hrs by Annexin V-FITC/PI staining based flow cytometric analysis (reference value: 0.07 %). Type of assay: functional.
A short description of assay [17]: Induction of apoptosis in human ATRA-resistant NB4-LR2 cells assessed as viable cells at 5 uM incubated for 24 hrs by Annexin V-FITC/PI staining based flow cytometric analysis (reference value: 87.30 %). The settings on record: read-out: Activity. Type of assay: functional.
Assay [18] deals with NB-4. Put plainly: Induction of apoptosis in human NB4 cells assessed as early apoptotic cells at 5 uM incubated for 24 hrs by Annexin V-FITC/PI staining based flow cytometric analysis (reference value: 4.37 %). Type of assay: functional.
Assay [19] is described as follows: Induction of apoptosis in human ATRA-resistant NB4-LR2 cells assessed as early apoptotic cells at 5 uM incubated for 24 hrs by Annexin V-FITC/PI staining based flow cytometric analysis (reference value: 5.38 %). Type of assay: functional.

Turning to `COc1ccc(CC(=O)N/N=C/c2c(O)ccc3ccccc23)cc1`, the outcome in the assay on ATRA-resistant NB4-LR2 [1], in the assay with ATRA-resistant NB4-LR2 [2] and in the assay with ATRA-resistant NB4-LR2 [10] was inactive. In addition, the Activity in the assay on NB-4 [3] is reported as 1.78%; in [4], 0.77%; in [7], 18.38%; in assay [8] it was 17.31%; in the assay with NB-4 [9] it was 18.15%; in the assay on NB-4 [11], 20.4%. Also, the viability at 10 µM in assay [5] came to 63.5%; with NB-4 [6] it was 60.7%.

Turning to `O=[N+]([O-])/C=C/c1cccc2ccccc12`, the Activity in assay [12] worked out at 28.61%; in [14], 0.29%; with NB-4 [15], 11.26%; with NB-4 [16], 0.48%; in the assay with NB-4 [18], 9.62%; in [19], 28.83%. Further, the viability at 5 µM in the assay with NB-4 [13] stood at 78.6%; in assay [17] it was 42.3%.
